Source: publication PMC10892984, “Novel Antineoplastic Inducers of Mitochondrial Apoptosis in Human Cancer Cells” (Molecules, 2024)
“And” between values parts separate entries of the source, which are not always exact repeats. Identical values can stand only once.

Experiments:
NCI/ADR-RES = conditions: for TGI: ovarian cancer, mutant p53, 48 h
MALME-3M = conditions: 48 h; for TGI: MALME-3M, melanoma, wild-type p53
HOP-62 = conditions: for TGI: HOP-62, non-small-cell lung cancer, mutant p53, 48 h
RPMI-8226 = conditions: for TGI: RPMI-8226, leukemia, mutant p53, 48 h
HCC-2998 = conditions: for TGI: HCC-2998, colon cancer, mutant p53, 48 h
OVCAR-8 = conditions: for TGI: OVCAR-8, ovarian cancer, mutant p53, 48 h
UACC-62 = conditions: for TGI: UACC-62, melanoma, wild-type p53, 48 h
[1] = tested on: 60 human cancer cell lines; conditions: for induction of cancer cell death (classification): NCI 60 panel overall; for Mean of Inhibition Data (MID) TGI, 10^MID: mean over all tested cell lines of the NCI 60 panel
Source text: The defined tumor inhibition criterion (GI50, TGI, or LC50) is recalculated in log10 expression, and the colored bars, which indicate then the sensitivity of the individual tumor cell line to the agent, are given in log10 units. […] The most important feature is at the bottom of the page: the MID (Mean of Inhibition Data) indicates the mean concentration for all tested cell lines required for the drug to reach the defined tumor inhibition criterion (GI50, TGI, or LC50). It is given in Log10GI50, Log10TGI, and Log10LC50. From those values, the corresponding MID is calculated. […] The MID can be transformed from logarithmic into linear concentrations by the formula: c = 10^MID.
The human tumor cell lines of the cancer screening panel are grown in RPMI-1640 medium containing 5% fetal bovine serum (FBS) and 2 mM L-glutamine. For a typical screening experiment, cells are inoculated into 96-well microtiter plates in 100 μL at plating densities ranging from 5000 to 40,000 cells/well, depending on the doubling time of individual cell lines. After cell inoculation, the microtiter plates are incubated at 37 °C, 5% CO2, 95% air, and 100% relative humidity for 24 h prior to the addition of experimental drugs. After 24 h, two plates of each cell line are fixed in situ with trichloroacetic acid (TCA) to represent a measurement of the cell population for each cell line at the time of drug addition (Tz). Experimental drugs are solubilized in dimethyl sulfoxide (DMSO) at 400-fold the desired final maximum test concentration and stored frozen prior to use. At the time of drug addition, an aliquot of frozen concentrate is thawed and diluted to twice the desired final maximum test concentration with a complete medium containing 50 μg/mL gentamicin. Additional four, 10-fold or ½ log serial dilutions are made to provide a total of five drug concentrations plus control. Aliquots of 100 μL of these different drug dilutions are added to the appropriate microtiter wells already containing 100 μL of the medium, resulting in the required final drug concentrations.
Following drug addition, the plates are incubated for an additional 48 h at 37 °C, 5% CO2, 95% air, and 100% relative humidity. For adherent cells, the assay is terminated by the addition of cold TCA. Cells are fixed in situ by the gentle addition of 50 μL of cold 50% (m/v) TCA (final concentration, 10% TCA) and incubated for 60 min at 4 °C. The supernatant is discarded, and the plates are washed five times with tap water and air dried. Sulforhodamine B (SRB) solution [100 μL at 0.4% (m/v) in 1% acetic acid] is added to each well, and plates are incubated for 10 min at room temperature. After staining, unbound dye is removed by washing five times with 1% acetic acid, and the plates are air dried. Bound stain is subsequently solubilized with 10 mM trizma® base [2-amino-2-(hydroxymethyl)-1,3-propandiol, tris base, trometamol], and the absorbance is read on an automated plate reader at a wavelength of λ = 515 nm. For suspension cells, the methodology is the same, except that the assay is terminated by fixing settled cells at the bottom of the wells by gently adding 50 μL of 80% TCA (final concentration, 16% TCA). Using the seven absorbance measurements [time zero, (Tz), control growth, (C), and test growth in the presence of the drug at the five concentration levels (Ti)], the percentage growth is calculated at each of the drug concentration levels. Percentage growth inhibition is calculated as:[(Ti − Tz)/(C − Tz)] × 100 for concentrations for which Ti ≥ Tz [(Ti − Tz)/Tz] × 100 for concentrations for which Ti < Tz
Three dose-response parameters are calculated for each experimental agent.

TK-10 = conditions: for TGI: TK-10, renal cancer, mutant p53, 48 h
NCI-H226 = conditions: for TGI: NCI-H226, non-small-cell lung cancer, p53 Lit. inconclusive, 48 h
OVCAR-5 = conditions: for TGI: OVCAR-5, ovarian cancer, p53 Lit. inconclusive, 48 h
HT29 = conditions: for TGI: HT29, colon cancer, mutant p53, 48 h
SF-539 = conditions: for TGI: SF-539, CNS cancer (brain tumor), mutant p53, 48 h
MDA-MB-231 = conditions: for TGI: MDA-MB-231, breast cancer, mutant p53, 48 h
SW-620 = conditions: for TGI: SW-620, colon cancer, mutant p53, 48 h
UO-31 = conditions: for TGI: UO-31, renal cancer, wild-type p53, 48 h
DU-145 = conditions: for TGI: DU-145, prostate cancer, mutant p53, 48 h
PC-3 cells = assay: Cytochrome c assay (mitochondrial and cytosolic), ELISA; type: cell-based, human; conditions: for toxicity for the cell line: 50 µM and 75 µM, 48 h post-treatment
Method: (§1) Cell numbers of 2 × 10^6 PC-3 and DU-145 cells were seeded into a […]. […] The protein content for each fraction was calculated to determine the mass content of cytochrome c in each fraction (pg cytochrome c/mg total protein). The mass content of cytochrome c (pg cytochrome c/mg total protein) was normalized towards the corresponding blank DMSO control and is given in percent (%) of blank DMSO control.

DU-145 cells = assay: as above; type: cell-based, human; conditions: for toxicity for the cell line: 50 µM and 75 µM, 48 h post-treatment
Method: as §1

KM-12 = conditions: for TGI: KM-12, colon cancer, mutant p53, 48 h
786-0 = conditions: for TGI: 786-0, renal cancer, mutant p53, 48 h
RXF 393 = conditions: for TGI: RXF 393, renal cancer, mutant p53, 48 h
SK-MEL-5 = conditions: for TGI: SK-MEL-5, melanoma, wild-type p53, 48 h
SNB-75 = conditions: for TGI: SNB-75, CNS cancer (brain tumor), mutant p53, 48 h
HCT-15 = conditions: for TGI: HCT-15, colon cancer, mutant p53, 48 h
SK-MEL-2 = conditions: for TGI: SK-MEL-2, melanoma, mutant p53, 48 h
[2] = 48 h, tested 500 nM, 1 µM, 5 µM, 25 µM

For COc1cc2c(c(OC)c1OC)-c1ccc(NNC(N)=S)c(=O)cc1C(NC(C)=O)CC2 [Compound 2, N-[(aS,7S)-10-(2-carbamothioylhydrazinyl)-1,2,3-trimethoxy-9-oxo-5,6,7,9-tetrahydrobenzo[a]heptalen-7-yl]acetamide monohydrate × ⅔ (ethyl acetate)], the GI50 (NCI/ADR-RES; Homo sapiens, 48 h) was 25.3 µM, the CC50 (NCI/ADR-RES; Homo sapiens, 48 h, read-out: LC50) was > 100 µM and the TGI (NCI/ADR-RES) was > 100 µM. For the same molecule, the GI50 (MALME-3M; Homo sapiens, Malme-3M) was 0.394 µM, the CC50 (MALME-3M; Homo sapiens, Malme-3M, read-out: LC50) was > 100 µM and the TGI (MALME-3M) was > 100 µM. For the same molecule, the TGI (HOP-62) was > 100 µM, the GI50 (HOP-62; Homo sapiens, HOP-62, 48 h) was 0.7 µM and the CC50 (HOP-62; Homo sapiens, HOP-62, 48 h, read-out: LC50) was > 100 µM. The GI50 (RPMI-8226; Homo sapiens, RPMI-8226, 48 h) was 0.349 µM, the CC50 (RPMI-8226; Homo sapiens, RPMI-8226, 48 h, read-out: LC50) was > 100 µM and the TGI (RPMI-8226) was 8.65 µM. The TGI (HCC-2998) was 0.674 µM, the GI50 (HCC-2998; Homo sapiens, HCC 2998, 48 h) was 0.272 µM and the CC50 (HCC-2998; Homo sapiens, HCC 2998, 48 h, read-out: LC50) was > 100 µM. For the same molecule, the GI50 (OVCAR-8; Homo sapiens, OVCAR-8, 48 h) was 0.97 µM, the CC50 (OVCAR-8; Homo sapiens, OVCAR-8, 48 h, read-out: LC50) was > 100 µM and the TGI (OVCAR-8) was > 100 µM. For the same molecule, the GI50 (UACC-62; Homo sapiens, UACC-62, 48 h) was 0.625 µM, the CC50 (UACC-62; Homo sapiens, UACC-62, 48 h, read-out: LC50) was > 100 µM and the TGI (UACC-62) was > 100 µM. For the same molecule, the GI50 ([1]; Homo sapiens, read-out: Mean of Inhibition Data (MID) GI50, 10^MID) was 0.933 µM, the CC50 ([1]; Homo sapiens, read-out: Mean of Inhibition Data (MID) LC50, 10^MID) was 95.5 µM and the “induction of cancer cell death (classification)” value [1] was “acts only cytostatic”. The “Mean of Inhibition Data (MID) TGI, 10^MID” value [1] was 32.359 µM, the GI50 (TK-10; Homo sapiens, TK-10, 48 h) was 6.77 µM and the CC50 (TK-10; Homo sapiens, TK-10, 48 h, read-out: LC50) was > 100 µM. For the same molecule, the TGI (TK-10) was > 100 µM, the GI50 (NCI-H226; Homo sapiens, NCI-H226, 48 h) was 1.74 µM and the CC50 (NCI-H226; Homo sapiens, NCI-H226, 48 h, read-out: LC50) was > 100 µM. For the same molecule, the TGI (NCI-H226) was > 100 µM, the GI50 (OVCAR-5; Homo sapiens, OVCAR-5, 48 h) was 9.67 µM and the CC50 (OVCAR-5; Homo sapiens, OVCAR-5, 48 h, read-out: LC50) was > 100 µM. The TGI (OVCAR-5) was > 100 µM, the TGI (HT29) was > 100 µM and the GI50 (HT29; Homo sapiens, HT-29, 48 h) was 0.336 µM. For the same molecule, the CC50 (HT29; Homo sapiens, HT-29, 48 h, read-out: LC50) was > 100 µM, the GI50 (SF-539; Homo sapiens, SF-539, 48 h) was 0.418 µM and the CC50 (SF-539; Homo sapiens, SF-539, 48 h, read-out: LC50) was > 100 µM. For the same molecule, the TGI (SF-539) was 20.5 µM, the GI50 (MDA-MB-231; Homo sapiens, MDA-MB-231, 48 h) was 0.359 µM and the CC50 (MDA-MB-231; Homo sapiens, MDA-MB-231, 48 h, read-out: LC50) was > 100 µM. The TGI (MDA-MB-231) was 1.88 µM, the GI50 (SW-620; Homo sapiens, SW-620, 48 h) was 0.369 µM and the CC50 (SW-620; Homo sapiens, SW-620, 48 h, read-out: LC50) was > 100 µM. The TGI (SW-620) was > 100 µM, the GI50 (UO-31; Homo sapiens, UO-31, 48 h) was > 100 µM and the CC50 (UO-31; Homo sapiens, UO-31, 48 h, read-out: LC50) was > 100 µM. For the same molecule, the TGI (UO-31) was > 100 µM, the TGI (DU-145) was 1.44 µM and the GI50 (DU-145; Homo sapiens, DU-145, 48 h) was 0.341 µM. The CC50 (DU-145; Homo sapiens, DU-145, 48 h, read-out: LC50) was > 100 µM, the “toxicity for the cell line” value (PC-3 cells; 25 µM) was “highly toxic” and the “difference in the cytochrome c-residing cellular compartment” value (PC-3 cells; 48 h) was “failed to induce a significant difference”. For the same molecule, the “toxicity for the cell line” value (DU-145 cells; 25 µM) was “highly toxic”, the “difference in the cytochrome c-residing cellular compartment” value (DU-145 cells; 48 h, stated as less significantly than in PC-3) was “failed to induce a significant difference” and the GI50 (KM-12; Homo sapiens, KM12, 48 h) was 0.255 µM. The CC50 (KM-12; Homo sapiens, KM12, 48 h, read-out: LC50) was > 100 µM, the TGI (KM-12) was 0.801 µM and the TGI (786-0) was > 100 µM. The GI50 (786-0; Homo sapiens, 786-0, 48 h) was 0.818 µM, the CC50 (786-0; Homo sapiens, 786-0, 48 h, read-out: LC50) was > 100 µM and the GI50 (RXF 393; Homo sapiens, RXF 393, 48 h) was 0.298 µM. The CC50 (RXF 393; Homo sapiens, RXF 393, 48 h, read-out: LC50) was > 100 µM, the TGI (RXF 393) was 0.747 µM and the GI50 (SK-MEL-5; Homo sapiens, SK-MEL-5, 48 h) was 0.373 µM. For the same molecule, the CC50 (SK-MEL-5; Homo sapiens, SK-MEL-5, 48 h, read-out: LC50) was > 100 µM, the TGI (SK-MEL-5) was 4.71 µM and the GI50 (SNB-75; Homo sapiens, SNB-75, 48 h) was 0.441 µM. For the same molecule, the CC50 (SNB-75; Homo sapiens, SNB-75, 48 h, read-out: LC50) was > 100 µM, the TGI (SNB-75) was > 100 µM and the TGI (HCT-15) was > 100 µM. The GI50 (HCT-15; Homo sapiens, HCT-15, 48 h) was 4.03 µM, the CC50 (HCT-15; Homo sapiens, HCT-15, 48 h, read-out: LC50) was > 100 µM and the GI50 (SK-MEL-2; Homo sapiens, SK-MEL-2, 48 h) was > 100 µM. The CC50 (SK-MEL-2; Homo sapiens, SK-MEL-2, 48 h, read-out: LC50) was > 100 µM and the TGI (SK-MEL-2) was > 100 µM.

COc1cc2c(c(OC)c1OC)-c1ccc(NNC(=S)N(Cc3cccc(C[N+](Cc4cccc(CNC56CC7CC(CC(C7)C5)C6)c4)(Cc4cccc(CNC56CC7CC(CC(C7)C5)C6)c4)Cc4cccc(CN(C(=S)NNc5ccc6c(cc5=O)C(NC(C)=O)CCc5cc(OC)c(OC)c(OC)c5-6)C56CC7CC(CC(C7)C5)C6)c4)c3)C34CC5CC(CC(C5)C3)C4)c(=O)cc1C(NC(C)=O)CC2 [Compound 3, [(bis{3-[(tricyclo[3.3.1.1^3,7]decan-1-ylamino)methyl]benzyl}ammonio)bis(methanediylbenzene-3,1-diylmethanediyl)]di-2-[(aS,7S)-7-(acetylamino)-1,2,3-trimethoxy-9-oxo-5,6,7,9-tetrahydrobenzo[a]heptalen-10-yl]-N-(tricyclo[3.3.1.1^3,7]decan-1-yl)hydrazinecarbothioamide chloride pentahydrate] was tested, and the TGI (NCI/ADR-RES) was 12.5 µM, the TGI (MALME-3M) was 3.04 µM and the TGI (HOP-62) was 7.43 µM. It also gave a TGI (RPMI-8226) of 1.76 µM, a TGI (HCC-2998) of 1.47 µM and a TGI (OVCAR-8) of 7.49 µM. For the same molecule, the TGI (UACC-62) was 6.38 µM, the “induction of cancer cell death (classification)” value [1] was “tumoricidal” and the “Mean of Inhibition Data (MID) TGI, 10^MID” value [1] was 4.571 µM and 4.57 µM. The TGI (TK-10) was 8.35 µM, the TGI (NCI-H226) was 9.97 µM and the TGI (OVCAR-5) was 5.03 µM. It also gave a TGI (HT29) of 2.81 µM, a TGI (SF-539) of 4.30 µM and a TGI (MDA-MB-231) of 2.99 µM. It also gave a TGI (SW-620) of 2.06 µM, a TGI (UO-31) of 7.20 µM and a TGI (DU-145) of 7.10 µM. The “toxicity for the cell line” value (PC-3 cells; 25 µM) was “highly toxic”, the “cell death with depletion of cytosolic cytochrome c” value (PC-3 cells; 25.0 µM, 48 h) was “induced complete cell death” and the “concentration at which cytochrome c translocation from mitochondria into the cytosol was readily induced” value (PC-3 cells; [2]) was 5.0 µM. For the same molecule, the “toxicity for the cell line” value (DU-145 cells; 25 µM) was “highly toxic”, the “concentration at which cytochrome c translocation from mitochondria into the cytosol was readily induced” value (DU-145 cells; [2]) was 25.0 µM and the TGI (KM-12) was 4.52 µM. For the same molecule, the TGI (786-0) was 5.28 µM, the TGI (RXF 393) was 6.65 µM and the TGI (SK-MEL-5) was 2.25 µM. The TGI (SNB-75) was 6.68 µM, the TGI (HCT-15) was 5.96 µM and the TGI (SK-MEL-2) was 2.76 µM.
